Legend:
SHP2 = SHP2 (Homo sapiens (Human), UniProt Q06124); experiment: Shp2 Biochemical Assay (DiFMUP conversion); conditions: for IC50: 10 pM SHP2, activating peptide pIRS1, DiFMUP substrate, average where more than one data point
Procedure: SHP2 activity was monitored by measuring the conversion of the surrogate substrate 6,8-difluoromethylumbelliferyl phosphate (DiFMUP) to the fluorescent product, 6,8-difluoromethylumbelliferone (DiFMU).
SHP2 was pre-incubated with test compounds and the activating peptide pIRS1 (H2N-LN(pY)IDLDLV-(PEG)8-LST(pY)ASINFQK-amide) for 30 min, prior to addition of the 6,8-difluoromethylumbelliferyl phosphate (DiFMUP), (Thermo Fisher D6567). Final assay concentrations were 10 pM SHP2, 0.25 μM pIRS1 peptide, 50 μM DiFMUP, 25 mM Bis-Tris propane, pH 7.0, 150 mM NaCl, 0.05% (v/v) Tween-20, 0.5 mM TCEP and 5% (v/v) DMSO. Rates of reaction were then measured over 30 min by monitoring fluorescence on a BMG Pherastar reader at excitation 360 nm/emission 450 nm. IC50 values were calculated from the normalized dose-response plots using four parameter logistic curve fit.

pERK = experiment: Cellular pERK Inhibition Assay (phospho-p44/42 MAPK sandwich ELISA); type: cell-based; conditions: Homo sapiens; HCC827 cells, 0.5 hours compound treatment; average where more than one data point
Procedure: Cellular pERK Inhibition Assay
HCC827 cells (ATCC, Manassas, USA) were seeded into 96-well plates at a density of 1×10^5 cells/well in RPMI medium supplemented with 10% FBS and incubated 24 h. Compounds were diluted first in DMSO and then into serum-free medium, before being added to cells in triplicate to give a final concentration of 0.1% DMSO. Plates were incubated at 37° C. for 0.5 hours in a humidified atmosphere of 5% CO2 in air.
Following compound treatment, medium was removed and cells were lysed by adding 50 μL of lysis buffer (Cell Signalling Technology, Beverly, USA) to each well. Plates were then incubated at room temperature for 25 minutes with shaking. pERK levels were measured in lysates using the PathScan® phospho-p44/42 MAPK (Thr202/Tyr204) sandwich ELISA (Cell Signalling Technology, Beverly, USA) as per kit instructions. Briefly, 50 μL of cell lysate was added to 50 μL of ELISA sample diluent in a 96-well ELISA plate and incubated overnight at 4° C. Following washing, 100 μL of detection antibody was added per well and the plates incubated for 1 hour at 37° C. Plates were washed again and incubated at 37° C. for 30 minutes with 100 μl of HRP-linked secondary antibody per well. After final washing, 100 μL per well of TMB substrate was added and plates incubated at 37° C. to develop colour. Colour development was stopped by the addition of 100 μL per well of stop solution. Plates were read at 450 nm on a SpectraMax Gemini reader (Molecular Devices, Uckfield, UK).
The average signal from blank wells (no cells added) was subtracted from the signals from each sample well. Levels of pERK were then expressed as “percent of control”, using DMSO treated samples as control. Dose response curves were generated using GraphPad Prism Version 6 (GraphPad Software, La Jolla, USA) and fitted using the four parameter logistic curve fit.

Structure (SMILES)	IC50 (SHP2) [nM]	IC50 (pERK) [nM]	inhibition at 0.003 µM (SHP2; at 0.0030 μM, read-out: SHP2 % inhibition at given concentration) [%]
Cc1nc2c(-c3ccc4ncc(N5CCC5)nc4c3Cl)n[nH]c2nc1N1CCC2(CC1)CO[C@@H](C)[C@H]2N [Example 25, (3S,4S)-8-{3-[3-(azetidin-1-yl)-5-chloroquinoxalin-6-yl]-5-methyl-1H-pyrazolo[3,4-b]pyrazin-6-yl}-3-methyl-2-oxa-8-azaspiro[4.5]decan-4-amine]	24	28	
Cc1nc2c(-c3ccc4nn(C)c(Cl)c4c3Cl)n[nH]c2nc1N1CCC2(CCC[C@H]2N)CC1 [Example 15, (1R)-8-[3-(3,4-dichloro-2-methyl-2H-indazol-5-yl)-5-methyl-1H-pyrazolo[3,4-b]pyrazin-6-yl]-8-azaspiro[4.5]decan-1-amine]	7.6	59	
Cc1nc2c(-c3cccc(Cl)c3F)n[nH]c2nc1N1CCC2(CC1)CO[C@@H](C)[C@H]2N [Example 19, (3S,4S)-8-[3-(3-chloro-2-fluorophenyl)-5-methyl-1H-pyrazolo[3,4-b]pyrazin-6-yl]-3-methyl-2-oxa-8-azaspiro[4.5]decan-4-amine]	9.8	100	

Stronger by IC50 (pERK), values ahead:

IC50 (SHP2) [nM]	IC50 (pERK) [nM]	inhibition at 0.003 µM (SHP2; at 0.0030 μM, read-out: SHP2 % inhibition at given concentration) [%]	Structure (SMILES)
7.1	3.6		C[C@@H]1OCC2(CCN(c3nc4[nH]nc(-c5ccc6nn(C)c(Cl)c6c5Cl)c4nc3CO)CC2)[C@@H]1N [Example 8, {6-[(3S,4S)-4-amino-3-methyl-2-oxa-8-azaspiro[4.5]decan-8-yl]-3-(3,4-dichloro-2-methyl-2H-indazol-5-yl)-1H-pyrazolo[3,4-b]pyrazin-5-yl}methanol]
11	8.4		COc1cnc2ccc(-c3n[nH]c4nc(N5CCC6(CC5)CO[C@@H](C)[C@H]6N)c(CO)nc34)c(Cl)c2n1 [Example 22, {6-[(3S,4S)-4-amino-3-methyl-2-oxa-8-azaspiro[4.5]decan-8-yl]-3-(5-chloro-3-methoxyquinoxalin-6-yl)-1H-pyrazolo[3,4-b]pyrazin-5-yl}methanol]
28	18		Cc1nc2c(-c3ccc4ncc(N5CCOCC5)nc4c3Cl)n[nH]c2nc1N1CCC2(CC1)CO[C@@H](C)[C@H]2N [Example 26, (3S,4S)-8-{3-[5-chloro-3-(morpholin-4-yl)quinoxalin-6-yl]-5-methyl-1H-pyrazolo[3,4-b]pyrazin-6-yl}-3-methyl-2-oxa-8-azaspiro[4.5]decan-4-amine]
	4.9	37	C[C@@H]1OCC2(CCN(c3nc4[nH]nc(-c5cccc(Cl)c5Cl)c4nc3CO)CC2)[C@@H]1N [Example 18, {6-[(3S,4S)-4-amino-3-methyl-2-oxa-8-azaspiro[4.5]decan-8-yl]-3-(2,3-dichlorophenyl)-1H-pyrazolo[3,4-b]pyrazin-5-yl}methanol]
